For orientation: IC50 means the midpoint of a concentration-inhibition curve.

Each structure is given as a SMILES string.

Drawing on US8293917B2, “Pyrazole compounds as CCR1 antagonists” (Boehringer Ingelheim International GmbH, priority 2008, dated 2012), this text covers IC50 for 26 molecules.

The assay concerns the target T1, CCR1 (Homo sapiens, UniProt P32246).
T1 construct: host or cells: non-adherent cells
T1 sequence (P32246 1-355): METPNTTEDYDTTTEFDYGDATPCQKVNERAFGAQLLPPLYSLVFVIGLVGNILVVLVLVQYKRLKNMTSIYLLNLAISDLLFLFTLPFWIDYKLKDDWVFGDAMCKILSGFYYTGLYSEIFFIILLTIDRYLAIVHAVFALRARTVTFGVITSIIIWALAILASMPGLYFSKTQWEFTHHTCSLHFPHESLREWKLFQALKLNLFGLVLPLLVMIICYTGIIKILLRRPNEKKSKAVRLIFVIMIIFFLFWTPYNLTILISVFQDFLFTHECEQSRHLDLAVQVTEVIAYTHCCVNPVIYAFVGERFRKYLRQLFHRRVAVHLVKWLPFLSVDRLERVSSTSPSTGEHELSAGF
The assay is described as follows: functional cellular assay measuring calcium flux in response to MIP1α in CCR1-transfected cells (Method A or Method B). In kind it is cell-based. The following applies: cells stably expressing recombinant CCR1 and G-alpha-16; MIP-1alpha added at EC80; method (A: FLIPR TETRA, B: FDSS6000) not stated per compound. The procedure:
Compounds are assessed for the ability to block the interaction of CCR1 and its ligands in a functional cellular assay measuring calcium flux in response to MIP1α in CCR1-transfected cells.
Method A: Non-adherent cells purchased from Chemicon Corporation (HTS005C), stably expressing recombinant CCR1 and G-alpha-16 are grown in RPMI 1640 medium (Mediatech 10-080-CM) supplemented with 10% heat-inactivated FBS, 0.4 mg/mL Geneticin and penicillin/streptomycin. On the day of the assay, the cells are transferred to a beaker and dye-loaded in bulk using a Fluo-4 NW Calcium Assay Kit with probenecid (Invitrogen F36205) at 0.8E6 cells/mL for 1 hour at room temperature. After 1 hour, they are seeded in a 384-well tissue culture-treated plate at a density of 20,000 cells/well. Appropriately diluted test compound is added to the well to achieve a top concentration of 3,000 nM (diluted 3-fold with 10 doses total). The final concentration of DMSO is 1%. The buffer is HBSS (Invitrogen 14025) with 20 mM HEPES at pH 7.4. The cells are allowed to incubate 1 hour in the dark at room temperature. The plates are transferred to the FLIPR TETRA where MIP-1alpha in 1% BSA is added at the EC80 final concentration. Wells +/−MIP-1alpha containing diluted DMSO instead of compound serve as the controls. Intracellular calcium flux is recorded on the FLIPR TETRA, using excitation at 470/495 nm and emission at 515/575 nm. Data are analyzed using Activity Base software.
Method B: Non-adherent cells purchased from Chemicon Corporation (HTS005C), stably expressing recombinant CCR1 and G-alpha-16 are grown in RPMI 1640 medium (Mediatech 10-080-CM) supplemented with 10% FBS, 0.4 mg/mL Geneticin and penicillin/streptomycin. On the day of the assay, the cells are loaded with Calcium 4 dye (Molecular Devices R7448) with Probenecid (Invitrogen P346400) at 8E5 cells/mL for 1 hour at room temperature. After 1 hour, they are seeded in a 384-well tissue culture-treated plate at a density of 20,000 cells/well. Appropriately diluted test compound is added to the well to achieve a top concentration of 3,000 nM (diluted 4-fold with 10 doses total). The final concentration of DMSO is 1%. The buffer is HBSS (Invitrogen 14025) with 20 mM HEPES at pH 7.4. The cells incubate 30 minutes at 37 C and then 30 minutes at room temperature. The plates are transferred to the HAMAMATSU FDSS6000 where MIP-1alpha in 1% BSA is added at the EC80 final concentration. All plates must be read within 4 hours of the start of dye-loading. Wells +/−MIP-1alpha containing diluted DMSO instead of compound serve as the controls. Data are analyzed using Activity Base software.
In the case of `CCC[C@H](NC(=O)c1cnn(-c2ccc(Cl)cc2)c1C)c1ccc(S(C)(=O)=O)nc1` (stereo in doubt) [1-(4-Chloro-phenyl)-5-methyl-1H-pyrazole-4-carboxylic acid [1-(6-methanesulfonyl-pyridin-3-yl)-butyl]-amide], the IC50 worked out at 35 nM.
As for `Cc1c(C(=O)N[C@@H](C)c2cccc3ccccc23)cnn1-c1ccc(Cl)c(Cl)c1` [1-(3,4-Dichloro-phenyl)-5-methyl-1H-pyrazole-4-carboxylic acid ((S)-1-naphthalen-1-yl-ethyl)-amide], the half-maximal inhibitory concentration (IC50) was determined as 54 nM.
With `CCCC(NC(=O)c1cnn(-c2ccc(Cl)c(Cl)c2)c1C)c1ccnc(Br)c1` (centres unmarked) [1-(3,4-Dichloro-phenyl)-5-methyl-1H-pyrazole-4-carboxylic acid [1-(2-bromo-pyridin-4-yl)-butyl]-amide] the figure was 0.6 nM; with `CCCC(NC(=O)c1cnn(-c2ccc(Cl)c(Cl)c2)c1C)c1ccnc(S(C)(=O)=O)c1` (centres unmarked) [1-(3,4-Dichloro-phenyl)-5-methyl-1H-pyrazole-4-carboxylic acid [1-(2-methanesulfonyl-pyridin-4-yl)-butyl]-amide], 0.3 nM; with `CCCC(NC(=O)c1cnn(-c2ccc(Cl)c(Cl)c2)c1C)c1cncc(S(C)(=O)=O)c1` (centres unmarked) [1-(3,4-Dichloro-phenyl)-5-methyl-1H-pyrazole-4-carboxylic acid [1-(5-methanesulfonyl-pyridin-3-yl)-butyl]-amide], 1 nM.
The same measure for `CCCC(NC(=O)c1cnn(-c2ccc(Cl)c(Cl)c2)c1C)c1ccc(S(C)(=O)=O)nc1` (centres unmarked) [1-(3,4-Dichloro-phenyl)-5-methyl-1H-pyrazole-4-carboxylic acid [1-(6-methanesulfonyl-pyridin-3-yl)-butyl]-amide]: 5.3 nM; for `C=CCC[C@H](NC(=O)c1cnn(-c2ccc(Cl)c(Cl)c2)c1C)c1cccc(Br)c1` [1-(3,4-Dichloro-phenyl)-5-methyl-1H-pyrazole-4-carboxylic acid [(S)-1-(3-bromo-phenyl)-pent-4-enyl]-amide]: 41 nM; for `CC[C@H](NC(=O)c1cnn(-c2ccc(Cl)c(Cl)c2)c1C)c1cccc(Br)c1` [1-(3,4-Dichloro-phenyl)-5-methyl-1H-pyrazole-4-carboxylic acid [(S)-1-(3-bromo-phenyl)-propyl]-amide]: 16 nM.
With `Cc1c(C(=O)N[C@@H](C)c2ccc(F)c(C(F)(F)F)c2)cnn1-c1ccc(Cl)c(Cl)c1` [1-(3,4-Dichloro-phenyl)-5-methyl-1H-pyrazole-4-carboxylic acid [(S)-1-(4-fluoro-3-trifluoromethyl-phenyl)-ethyl]-amide] the figure was 28 nM; with `CCCC(NC(=O)c1cnn(-c2ccc(F)c(Cl)c2)c1C)c1cncc(S(C)(=O)=O)c1` (centres unmarked) [1-(3-Chloro-4-fluoro-phenyl)-5-methyl-1H-pyrazole-4-carboxylic acid [1-(5-methanesulfonyl-pyridin-3-yl)-butyl]-amide], 5.9 nM; with `CCCC(NC(=O)c1cnn(-c2ccc(F)c(Cl)c2)c1C)c1ccc(S(C)(=O)=O)nc1` (centres unmarked) [1-(3-Chloro-4-fluoro-phenyl)-5-methyl-1H-pyrazole-4-carboxylic acid [1-(6-methanesulfonyl-pyridin-3-yl)-butyl]-amide], 71 nM.
Turning to `CCCC(NC(=O)c1cnn(-c2ccc(Br)cc2)c1C)c1cncc(S(C)(=O)=O)c1` (centres unmarked) [1-(4-Bromo-phenyl)-5-methyl-1H-pyrazole-4-carboxylic acid [1-(5-methanesulfonyl-pyridin-3-yl)-butyl]-amide], the IC50 was found to be 9.3 nM.
Turning to `CCCC(NC(=O)c1cnn(-c2ccc(Cl)c(F)c2)c1C)c1cncc(S(C)(=O)=O)c1` (centres unmarked) [1-(4-Chloro-3-fluoro-phenyl)-5-methyl-1H-pyrazole-4-carboxylic acid [1-(5-methanesulfonyl-pyridin-3-yl)-butyl]-amide], the half-maximal inhibitory concentration (IC50) stood at 37 nM.
The same measure for `CCCC(NC(=O)c1cnn(-c2ccc(Cl)c(F)c2)c1C)c1ccc(S(C)(=O)=O)nc1` (centres unmarked) [1-(4-Chloro-3-fluoro-phenyl)-5-methyl-1H-pyrazole-4-carboxylic acid [1-(6-methanesulfonyl-pyridin-3-yl)-butyl]-amide]: 91 nM; for `CCC[C@H](NC(=O)c1cnn(-c2ccc(Cl)cc2)c1CO)c1cccc(Br)c1` [1-(4-Chloro-phenyl)-5-hydroxymethyl-1H-pyrazole-4-carboxylic acid [(S)-1-(3-bromo-phenyl)-butyl]-amide]: 16 nM; for `CCC[C@H](NC(=O)c1cnn(-c2ccc(Cl)cc2)c1CO)c1cccc(C(F)(F)F)c1` [1-(4-Chloro-phenyl)-5-hydroxymethyl-1H-pyrazole-4-carboxylic acid [(S)-1-(3-trifluoromethyl-phenyl)-butyl]-amide]: 6.5 nM.
The same measure for `CCCC(NC(=O)c1cnn(-c2ccc(Cl)cc2)c1C)c1ccnc(Br)c1` (centres unmarked) [1-(4-Chloro-phenyl)-5-methyl-1H-pyrazole-4-carboxylic acid [1-(2-bromo-pyridin-4-yl)-butyl]-amide]: 1.1 nM.
The same measure for `CCCC(NC(=O)c1cnn(-c2ccc(Cl)cc2)c1C)c1ccnc(S(=O)(=O)C2CC2)c1` (centres unmarked) [1-(4-Chloro-phenyl)-5-methyl-1H-pyrazole-4-carboxylic acid [1-(2-cyclopropanesulfonyl-pyridin-4-yl)-butyl]-amide]: 12 nM.
For the molecule `CCCC(NC(=O)c1cnn(-c2ccc(Cl)cc2)c1C)c1ccnc(S(=O)(=O)N(C)C)c1` (centres unmarked) [1-(4-Chloro-phenyl)-5-methyl-1H-pyrazole-4-carboxylic acid [1-(2-dimethylsulfamoyl-pyridin-4-yl)-butyl]-amide], the IC50 came to 4.5 nM.
For `CCCC(NC(=O)c1cnn(-c2ccc(Cl)cc2)c1C)c1ccnc(S(=O)(=O)CC)c1` (centres unmarked) [1-(4-Chloro-phenyl)-5-methyl-1H-pyrazole-4-carboxylic acid [1-(2-ethanesulfonyl-pyridin-4-yl)-butyl]-amide], the IC50 was 5.7 nM.
The same measure for `CCCC(NC(=O)c1cnn(-c2ccc(Cl)cc2)c1C)c1ccnc(S(C)(=O)=O)c1` (centres unmarked) [1-(4-Chloro-phenyl)-5-methyl-1H-pyrazole-4-carboxylic acid [1-(2-methanesulfonyl-pyridin-4-yl)-butyl]-amide]: 2.3 nM.
With `CCCC(NC(=O)c1cnn(-c2ccc(Cl)cc2)c1C)c1ccnc(S(=O)(=O)NC)c1` (centres unmarked) [1-(4-Chloro-phenyl)-5-methyl-1H-pyrazole-4-carboxylic acid [1-(2-methylsulfamoyl-pyridin-4-yl)-butyl]-amide] the figure was 2.9 nM; with `CCCC(NC(=O)c1cnn(-c2ccc(Cl)cc2)c1C)c1ccnc(S(N)(=O)=O)c1` (centres unmarked) [1-(4-Chloro-phenyl)-5-methyl-1H-pyrazole-4-carboxylic acid [1-(2-sulfamoyl-pyridin-4-yl)-butyl]-amide], 51 nM; with `CCCC(NC(=O)c1cnn(-c2ccc(Cl)cc2)c1C)c1cncc(Br)c1` (centres unmarked) [1-(4-Chloro-phenyl)-5-methyl-1H-pyrazole-4-carboxylic acid [1-(5-bromo-pyridin-3-yl)-butyl]-amide], 4.1 nM.
For the molecule `CCCC(NC(=O)c1cnn(-c2ccc(Cl)cc2)c1C)c1cncc(S(=O)(=O)C2CC2)c1` (centres unmarked) [1-(4-Chloro-phenyl)-5-methyl-1H-pyrazole-4-carboxylic acid [1-(5-cyclopropanesulfonyl-pyridin-3-yl)-butyl]-amide], the IC50 stood at 85 nM.
With `CCCC(NC(=O)c1cnn(-c2ccc(Cl)cc2)c1C)c1cncc(S(=O)(=O)N(C)C)c1` (centres unmarked) [1-(4-Chloro-phenyl)-5-methyl-1H-pyrazole-4-carboxylic acid [1-(5-dimethylsulfamoyl-pyridin-3-yl)-butyl]-amide] the figure was 4.9 nM.
